Results from patent publication US4873334A, “4,7-dihydropyrazolo(3,4-b) pyridine derivatives” (Shionogi & Co., Ltd., priority 1982, dated 1989).

Assays:
[1] = tested on: Spontaneously Hypertensive Rats; experiment: Antihypertensive action, tail-cuff systolic pressure in unanaesthetized SHR after i.p. administration; format: in vivo, Spontaneously Hypertensive Rats (female); details: 3 mg/kg intraperitoneally
Method: Female Spontaneously Hypertensive Rats(hereinafter referred to as SHR) with 160 mmHg of systolic pressure were employed without anaesthetization. The systolic pressure was, after SHRs were kept warm at 50° C. for 2 to 3 minutes, bloodlessly measured by the tail-cuff method [Japan J. Pharmacol., 28, 617 (1978)] using a Physiograph and an Electrosphygmomanometer (DMP-4B, PE-300, Narco Biosystems, Inc., Houston). Each compound was intraperitoneally administered to SHR at a dose of 3 mg per kilogramm. Antihypertensive action is shown in a maximal decrease of blood pressure, i.e. a maximum difference between systolic pressures after and before the administration of the test compound; along with which the duration period is also shown.

[2] = tested on: heart (contraction of apex); experiment: Systole inhibitory action / negative inotropic action, contractile tension of isolated Langendorff-perfused heart; design: species or system Guinea pigs
Method: (§1) Guinea pigs with 400-800g of body weight were hit strongly on their heads and the cartoid artery of each Guinea pigs was cut down in order to make them bloodless. The heart was isolated and perfused with at a constant pressure (50 cm H2 O) by the Langendorff method [Basic Pharmacology & Therapeutics, 9(4), 181 (1981)]. Krebs-Ringer bicarbonate solution (27° C.) containing 0.5% defibrinated blood was employed as a perfusate, into which a mixed gas of 95% oxygen and 5% carbon dioxide was continuously introduced. The flowing perfusate was led into a drop counter, and the changes of the flow i.e. increase and decrease are regarded as the respective indications for coronary vasodilation and vasoconstriction. The isomeric contraction of apex and the number of drops of the coronary perfusate were recorded on a Recticorder (RJG 3006, Nihon Koden) by way of an F-D Pick-up (SB-IT, Nihon Koden). […] Coronary vasodilating action is shown in changes of the quantiy of the perfusate, and systole inhibitory action is shown in those of inotropic tension.

[3] = tested on: heart (coronary perfusate flow); experiment: Coronary vasodilating action, perfusion flow change in isolated Langendorff-perfused heart; design: species or system Guinea pigs
Method: as §1

in vivo = details: mouse, female DS mice, intravenous
Method: In female DS mice (body weight: about 20g), LD50 value after the intravenous administration of the compounds was calculated by the Brownlee's up and down method [J. Am. Sat. As., 48, 262 (1953)].

| Compound | Duration of Effect ([1]; Table 1 (Part 1)) [h] | Maximum Hypotension ([1]; Table 1 (Part 1)) [mmHg] | Duration of Effect ([1]; Table 1 (Part 2)) [h] | Maximum decrease in systolic pressure ([1]; Table 1 (Part 2)) [mmHg] | Change of Contractile Tension ([2]; 0.1 μg, Table 1 (Part 2)) [%] | Change of Contractile Tension ([2]; 0.1 μg, Table 3 (Part 1)) [%] | Change of Contractile Tension ([2]; 1 μg, Table 3 (Part 1)) [%] | Perfusion Flow Change ([3]; 0.1 μg, Table 1 (Part 2)) | Perfusion Flow Change ([3]; 0.1 μg, Table 2 (Part 1)) | Perfusion Flow Change ([3]; 1 μg, Table 2 (Part 1)) | LD50 (in vivo) [mg/kg] | Change of Contractile Tension ([2]; 10 μg, Table 3 (Part 1)) [%] | Perfusion Flow Change ([3]; 10 μg, Table 2 (Part 1)) |
| --- | --- | --- | --- | --- | --- | --- | --- | --- | --- | --- | --- | --- | --- |
| COC(=O)C1=C(C)NC(C)=C(C(=O)OC)C1c1ccccc1[N+](=O)[O-] [(A), Nifedipine, reference compound] | 6 | 45 | 6 | 45 | -15 | -15 | -57 | +38% | +38% | +100% | – | – | – |
| COC(=O)C1=C(C)Nc2c(c(C3CCCC3)nn2C)C1c1cccc([N+](=O)[O-])c1 (centres unmarked) [(B-1), Methyl 3-cyclopentyl-1,6-dimethyl-4-(3-nitrophenyl)-4,7-dihydropyrazolo[3,4-b]pyridine-5-carboxylate] | 16 | 66 | – | – | – | 0 | 0 | – | +26% | +73% | 31.5 | 0 | +180% |
| COCCOC(=O)C1=C(C)Nc2c(c(C3CCCC3)nn2C)C1c1ccccc1[N+](=O)[O-] (centres unmarked) [(B-2), 2-Methoxyethyl 3-cyclopentyl-1,6-dimethyl-4-(2-nitrophenyl)-4,7-dihydropyrazolo[3,4-b]pyridine-5-carboxylate] | – | – | 6 | 45 | 0 | – | – | +28% | – | – | – | – | – |
| CCOC(=O)C1=C(C)Nc2c(c(C3CCCC3)nn2C)C1c1cccc([N+](=O)[O-])c1.Cl (centres unmarked) [(C-1), Ethyl 3-cyclopentyl-1,6-dimethyl-4-(3-nitrophenyl)-4,7-dihydropyrazolo[3,4-b]pyridine-5-carboxylate hydrochloride] | 14 | 42 | – | – | – | 0 | 0 | – | +40% | +79% | 50.6 | 0 | +93% |
| COCCOC(=O)C1=C(C)Nc2c(c(C3CCCC3)nn2C)C1c1cccc([N+](=O)[O-])c1 (centres unmarked) [(C-2), 2-Methoxyethyl 3-cyclopentyl-1,6-dimethyl-4-(3-nitrophenyl)-4,7-dihydropyrazolo[3,4-b]pyridine-5-carboxylate] | – | – | 6 | 36 | 0 | – | – | +15% | – | – | – | – | – |
| COCCOC(=O)C1=C(C)Nc2c(c(C3CCCCC3)nn2C)C1c1ccccc1[N+](=O)[O-] (centres unmarked) [(D), 2-Methoxyethyl 3-cyclohexyl-1,6-dimethyl-4-(2-nitrophenyl)-4,7-dihydropyrazolo[3,4-b]pyridine-5-carboxylate] | – | – | 6 | 65 | 0 | – | – | +32% | – | – | – | – | – |
| COCCOC(=O)C1=C(C)Nc2c(c(CC3CCCC3)nn2C)C1c1ccccc1[N+](=O)[O-] (centres unmarked) [(E), 2-Methoxyethyl 3-cyclopentylmethyl-1,6-dimethyl-4-(2-nitrophenyl)-4,7-dihydropyrazolo[3,4-b]pyridine-5-carboxylate] | – | – | 6 | 26 | 0 | – | – | +20% | – | – | – | – | – |
| CC1=C(C(=O)OCCCOC(C)C)C(c2ccccc2[N+](=O)[O-])c2c(C3CCCC3)nn(C)c2N1 (centres unmarked) [(F), 3-Isopropoxypropyl 3-cyclopentyl-1,6-dimethyl-4-(2-nitrophenyl)-4,7-dihydropyrazolo[3,4-b]pyridine-5-carboxylate] | – | – | 6 | 53 | 0 | – | – | +65% | – | – | – | – | – |
| CC1=C(C(=O)OCCOC2CCCC2)C(c2ccccc2[N+](=O)[O-])c2c(C3CCCC3)nn(C)c2N1 (centres unmarked) [(G), 2-Cyclopentyloxyethyl 3-cyclopentyl-1,6-dimethyl-4-(2-nitrophenyl)-4,7-dihydropyrazolo[3,4-b]pyridine-5-carboxylate] | – | – | 6 | 53 | 0 | – | – | +67% | – | – | – | – | – |
| CC1=C(C(=O)OCC2CCCO2)C(c2ccccc2[N+](=O)[O-])c2c(C3CCCC3)nn(C)c2N1 (centres unmarked) [(H), 2-Tetrahydrofurylmethyl 3-cyclopentyl-1,6-dimethyl-4-(2-nitrophenyl)-4,7-dihydropyrazolo[3,4-b]pyridine-5-carboxylate] | – | – | – | 0 | 0 | – | – | +34% | – | – | – | – | – |
| CC1=C(C(=O)OCCOc2ccccc2)C(c2ccccc2[N+](=O)[O-])c2c(C3CCCC3)nn(C)c2N1 (centres unmarked) [(I), 2-Phenoxyethyl 3-cyclopentyl-1,6-dimethyl-4-(2-nitrophenyl)-4,7-dihydropyrazolo[3,4-b]pyridine-5-carboxylate] | – | – | 6 | 74 | 0 | – | – | +43% | – | – | – | – | – |
| CSCCOC(=O)C1=C(C)Nc2c(c(C3CCCC3)nn2C)C1c1ccccc1[N+](=O)[O-] (centres unmarked) [(J), 2-Methylthioethyl 3-cyclopentyl-1,6-dimethyl-4-(2-nitrophenyl)-4,7-dihydropyrazolo[3,4-b]pyridine-5-carboxylate] | – | – | 6 | 20 | 0 | – | – | +68% | – | – | – | – | – |
| CC1=C(C(=O)OCCc2ccccc2)C(c2ccccc2[N+](=O)[O-])c2c(C3CCCC3)nn(C)c2N1 (centres unmarked) [(K), Phenethyl 3-cyclopentyl-1,6-dimethyl-4-(2-nitrophenyl)-4,7-dihydropyrazolo[3,4-b]pyridine-5-carboxylate] | – | – | 6 | 75 | 0 | – | – | +63% | – | – | – | – | – |
| CC1=C(C(=O)OCCc2ccc(Cl)cc2)C(c2cccc([N+](=O)[O-])c2)c2c(C3CCCC3)nn(C)c2N1 (centres unmarked) [(L), 4-Chlorophenethyl 3-cyclopentyl-1,6-dimethyl-4-(3-nitrophenyl)-4,7-dihydropyrazolo[3,4-b]pyridine-5-carboxylate] | – | – | 6 | 74 | – | – | – | – | – | – | – | – | – |
| COc1ccc(CCOC(=O)C2=C(C)Nc3c(c(C4CCCC4)nn3C)C2c2cccc([N+](=O)[O-])c2)cc1OC (centres unmarked) [(M), 3,4-Dimethoxyphenethyl 3-cyclopentyl-1,6-dimethyl-4-(3-nitrophenyl)-4,7-dihydropyrazolo[3,4-b]pyridine-5-carboxylate] | – | – | 6 | 86 | – | – | – | – | – | – | – | – | – |
